# Source: patent publication US11377469B2, “CD73 inhibitors” (ORIC Pharmaceuticals, Inc., priority 2017, dated 2022)
# Molecular target: CD73 (Homo sapiens (Human), UniProt P21589)
# Test: Biochemical Assay (CD73 inhibition, AMP hydrolysis, Malachite Green readout)
# Settings: CD73 0.3208 nM, AMP 15 μM, Tris-HCl pH 7.4, Malachite Green absorbance
# Experimental: Example A1: Biochemical Assay
# Assay Reaction Conditions
# • Assay Volume: 70 μl • Reaction Volume: 50 μl • CD73: 0.3208 nM • AMP: 15 μM • Assay Buffer: 2 5 mM Tris-HCL, pH 7.4, 0.01% Brij-35, 0.01% BSA, 5 mM MgCl2 Assay Procedure:
# Made dose titration of testing compounds in assay buffer, 10 points ½ log titrations in duplicates starting at 100 μM.
# Added 25 μl of CD73 to each well for a final concentration of 320 pM.
# Incubated at RT for 15 min.
# Added 25 μl of AMP to each well for a final concentration of 15 μM.
# Incubated at RT for 10 min.
# Added 10 μl of Malachite Green Reagent A, incubate at RT for 10 min.
# Added 10 μl of Malachite Green Reagent B, incubate at RT for 45 min. […]
# The ability of the compounds disclosed herein to inhibit CD73 activity was quantified and the respective IC50 values were determined. Table 1 provides the biochemical IC50 values of compounds disclosed herein.
# Sequence of CD73 (P21589 27-574): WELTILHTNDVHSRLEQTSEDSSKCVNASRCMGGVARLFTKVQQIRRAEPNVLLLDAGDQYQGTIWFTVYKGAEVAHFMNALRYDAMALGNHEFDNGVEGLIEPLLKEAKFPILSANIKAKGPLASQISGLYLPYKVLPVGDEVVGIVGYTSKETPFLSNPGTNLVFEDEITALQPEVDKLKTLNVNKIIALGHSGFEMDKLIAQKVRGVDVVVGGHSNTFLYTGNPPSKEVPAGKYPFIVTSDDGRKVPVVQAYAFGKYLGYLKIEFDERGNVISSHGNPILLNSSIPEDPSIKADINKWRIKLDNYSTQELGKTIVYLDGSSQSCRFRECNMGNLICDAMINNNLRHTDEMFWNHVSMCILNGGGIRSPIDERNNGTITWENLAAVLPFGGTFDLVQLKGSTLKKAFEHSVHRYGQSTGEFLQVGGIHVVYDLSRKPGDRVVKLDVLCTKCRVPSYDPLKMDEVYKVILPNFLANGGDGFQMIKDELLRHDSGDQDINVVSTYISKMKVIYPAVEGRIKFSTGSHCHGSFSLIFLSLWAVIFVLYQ
row,IC50 [nM],SMILES
1,> 1000,"O=P(O)(O)COC[C@H]1O[C@@H](n2ncc3c(OCc4cccc(Cl)c4)nc(Cl)nc32)[C@H](O)[C@@H]1O [Example 65, ((((2R,3S,4R,5R)-5-(6-chloro-4-((3-chlorobenzyl)oxy)-1H-pyrazolo[3,4-d]pyrimidin-1-yl)-3,4-dihydroxytetrahydrofuran-2-yl)methoxy)methyl)phosphonic acid]"
2,≤ 500,"C[C@H](Nc1nc(Cl)nc2c1cnn2[C@@H]1O[C@H](COCP(=O)(O)O)[C@@H](O)[C@H]1O)c1ccccc1Cl [Example 33, ((((2R,3S,4R,5R)-5-(6-chloro-4-(((S)-1-(2-chlorophenyl)ethyl)amino)-1H-pyrazolo[3,4-d]pyrimidin-1-yl)-3,4-dihydroxytetrahydrofuran-2-yl)methoxy)methyl)phosphonic acid]"
3,≤ 500,"CN(CC1CC1)c1nc(Cl)nc2c1cnn2[C@@H]1O[C@H](CS(=O)(=O)CP(=O)(O)O)[C@@H](O)[C@H]1O [Example 84, (((((2S,3S,4R,5R)-5-(6-chloro-4-((cyclopropylmethyl)(methyl)amino)-1H-pyrazolo[3,4-d]pyrimidin-1-yl)-3,4-dihydroxytetrahydrofuran-2-yl)methyl)sulfonyl)methyl)phosphonic acid]"
4,≤ 500,"O=P(O)(O)CS(=O)(=O)NC[C@H]1O[C@@H](n2ncc3c(NCc4ccccc4Cl)nc(Cl)nc32)[C@H](O)[C@@H]1O [Example 3, ((N-(((2R,3S,4R,5R)-5-(6-Chloro-4-((2-chlorobenzyl)amino)-1H-pyrazolo[3,4-d]pyrimidin-1-yl)-3,4-dihydroxytetrahydrofuran-2-yl)methyl)sulfamoyl)methyl)phosphonic acid]"
5,≤ 500,"O=P(O)(O)CS(=O)(=O)C[C@H]1O[C@@H](n2ncc3c(NCc4ccccc4Cl)nc(Cl)nc32)[C@H](O)[C@@H]1O [Example 14, (((((2S,3S,4R,5R)-5-(6-Chloro-4-((2-chlorobenzyl)amino)-1H-pyrazolo[3,4-d]pyrimidin-1-yl)-3,4-dihydroxytetrahydrofuran-2-yl)methyl)sulfonyl)methyl)phosphonic acid]"
6,≤ 500,"N#Cc1cccc(CNc2nc(Cl)nc3c2cnn3[C@@H]2O[C@H](COCP(=O)(O)O)[C@@H](O)[C@H]2O)c1 [Example 46, ((((2R,3S,4R,5R)-5-(6-chloro-4-((3-cyanobenzyl)amino)-1H-pyrazolo[3,4-d]pyrimidin-1-yl)-3,4-dihydroxytetrahydrofuran-2-yl)methoxy)methyl)phosphonic acid]"
7,≤ 500,"C[C@@H]1CCC[C@@H]1Nc1nc(Cl)nc2c1cnn2[C@@H]1O[C@H](CS(=O)(=O)CP(=O)(O)O)[C@@H](O)[C@H]1O [Example 135, (((((2S,3S,4R,5R)-5-(6-chloro-4-(((1S,2R)-2-methylcyclopentyl)amino)-1H-pyrazolo[3,4-d]pyrimidin-1-yl)-3,4-dihydroxytetrahydrofuran-2-yl)methyl)sulfonyl)methyl)phosphonic acid]"
8,500 to 1000,"O=P(O)(O)COC[C@H]1O[C@@H](n2ncc3c(NCc4ncccn4)nc(Cl)nc32)[C@H](O)[C@@H]1O [Example 90, ((((2R,3S,4R,5R)-5-(6-chloro-4-((pyrimidin-2-ylmethyl)amino)-1H-pyrazolo[3,4-d]pyrimidin-1-yl)-3,4-dihydroxytetrahydrofuran-2-yl)methoxy)methyl)phosphonic acid]"
9,> 1000,"O=P(O)(O)COC[C@H]1O[C@@H](n2ncc3c(NCc4cccc(Cl)c4)nc(N4CCCC4)nc32)[C@H](O)[C@@H]1O [Example 55, ((((2R,3S,4R,5R)-5-(4-((3-chlorobenzyl)amino)-6-(pyrrolidin-1-yl)-1H-pyrazolo[3,4-d]pyrimidin-1-yl)-3,4-dihydroxytetrahydrofuran-2-yl)methoxy)methyl)phosphonic acid]"
10,≤ 500,"O=P(O)(O)COC[C@H]1O[C@@H](n2nnc3c(N[C@H]4CCc5ccccc54)nc(Cl)nc32)[C@H](O)[C@@H]1O [Example 12, ((((2R,3S,4R,5R)-5-(5-chloro-7-(((S)-2,3-dihydro-1H-inden-1-yl)amino)-3H-[1,2,3]triazolo[4,5-d]pyrimidin-3-yl)-3,4-dihydroxytetrahydrofuran-2-yl)methoxy)methyl)phosphonic acid]"
11,≤ 500,"O=P(O)(O)CS(=O)(=O)C[C@H]1O[C@@H](n2cnc3c(NC4CCCC4)nc(Cl)nc32)[C@H](O)[C@@H]1O [Example 112, (((((2S,3S,4R,5R)-5-(2-chloro-6-(cyclopentylamino)-9H-purin-9-yl)-3,4-dihydroxytetrahydrofuran-2-yl)methyl)sulfonyl)methyl)phosphonic acid]"
12,≤ 500,"O=P(O)(O)COC[C@H]1O[C@@H](n2ncc3c(NCc4cccc(F)c4)nc(Cl)nc32)[C@H](O)[C@@H]1O [Example 29, ((((2R,3S,4R,5R)-5-(6-chloro-4-((3-fluorobenzyl)amino)-1H-pyrazolo[3,4-d]pyrimidin-1-yl)-3,4-dihydroxytetrahydrofuran-2-yl)methoxy)methyl)phosphonic acid]"
13,≤ 500,"O=P(O)(O)CS(=O)(=O)C[C@H]1O[C@@H](n2ncc3c(NCC4CCC4)nc(Cl)nc32)[C@H](O)[C@@H]1O [Example 111, (((((2S,3S,4R,5R)-5-(6-chloro-4-((cyclobutylmethyl)amino)-1H-pyrazolo[3,4-d]pyrimidin-1-yl)-3,4-dihydroxytetrahydrofuran-2-yl)methyl)sulfonyl)methyl)phosphonic acid]"
14,≤ 500,"O=P(O)(O)COC[C@H]1O[C@@H](n2ccc3c(NCC4CC4)nc(Cl)nc32)[C@H](O)[C@@H]1O [Example 15, ((((2R,3S,4R,5R)-5-(2-Chloro-4-((cyclopropylmethyl)amino)-7H-pyrrolo[2,3-d]pyrimidin-7-yl)-3,4-dihydroxytetrahydrofuran-2-yl)methoxy)methyl)phosphonic acid]"
15,≤ 500,"CN(C[C@H]1O[C@@H](n2ncc3c(NC4CCCC4)nc(Cl)nc32)[C@H](O)[C@@H]1O)S(=O)(=O)CP(=O)(O)O [Example 98, ((N-(((2R,3S,4R,5R)-5-(6-Chloro-4-(cyclopentylamino)-1H-pyrazolo[3,4-d]pyrimidin-1-yl)-3,4-dihydroxytetrahydrofuran-2-yl)methyl)-N-methylsulfamoyl)methyl)phosphonic acid]"
16,≤ 500,"O=P(O)(O)COC[C@H]1O[C@@H](n2ncc3c(NC[C@@H]4CCOC4)nc(Cl)nc32)[C@H](O)[C@@H]1O [Example 71, ((((2R,3S,4R,5R)-5-(6-chloro-4-((((S)-tetrahydrofuran-3-yl)methyl)amino)-1H-pyrazolo[3,4-d]pyrimidin-1-yl)-3,4-dihydroxytetrahydrofuran-2-yl)methoxy)methyl)phosphonic acid]"
17,≤ 500,"O=P(O)(O)CS(=O)(=O)C[C@H]1O[C@@H](n2nnc3c(NCc4ccccc4Cl)nc(Cl)nc32)[C@H](O)[C@@H]1O [Example 118, (((((2S,3S,4R,5R)-5-(5-chloro-7-((2-chlorobenzyl)amino)-3H[1,2,3]triazolo[4,5-d]pyrimidin-3-yl)-3,4-dihydroxytetrahydrofuran-2-yl)methyl)sulfonyl)methyl)phosphonic acid]"
18,≤ 500,"CC1(CNc2nc(Cl)nc3c2cnn3[C@@H]2O[C@H](COCP(=O)(O)O)[C@@H](O)[C@H]2O)CC1 [Example 96, ((((2R,3S,4R,5R)-5-(6-chloro-4-(((1-methylcyclopropyl)methyl)amino)-1H-pyrazolo[3,4-d]pyrimidin-1-yl)-3,4-dihydroxytetrahydrofuran-2-yl)methoxy)methyl)phosphonic acid]"
19,≤ 500,"Cc1cccc(CNc2nc(Cl)nc3c2cnn3[C@@H]2O[C@H](COCP(=O)(O)O)[C@@H](O)[C@H]2O)c1 [Example 41, ((((2R,3S,4R,5R)-5-(6-chloro-4-((3-methylbenzyl)amino)-1H-pyrazolo[3,4-d]pyrimidin-1-yl)-3,4-dihydroxytetrahydrofuran-2-yl)methoxy)methyl)phosphonic acid]"
20,≤ 500,"O=P(O)(O)CS(=O)(=O)C[C@H]1O[C@@H](n2nnc3c(NCC4CCC4)nc(Cl)nc32)[C@H](O)[C@@H]1O [Example 113, (((((2S,3S,4R,5R)-5-(5-chloro-7-((cyclobutylmethyl)amino)-3H-[1,2,3]triazolo[4,5-d]pyrimidin-3-yl)-3,4-dihydroxytetrahydrofuran-2-yl)methyl)sulfonyl)methyl)phosphonic acid]"
21,≤ 500,"O=P(O)(O)COC[C@H]1O[C@@H](n2ncc3c(NC[C@H]4CCCO4)nc(Cl)nc32)[C@H](O)[C@@H]1O [Example 70, ((((2R,3S,4R,5R)-5-(6-chloro-4-((((R)-tetrahydrofuran-2-yl)methyl)amino)-1H-pyrazolo[3,4-d]pyrimidin-1-yl)-3,4-dihydroxytetrahydrofuran-2-yl)methoxy)methyl)phosphonic acid]"
22,≤ 500,"O=P(O)(O)COC[C@H]1O[C@@H](n2ncc3c(NC4CCC4)nc(Cl)nc32)[C@H](O)[C@@H]1O [Example 79, ((((2R,3S,4R,5R)-5-(6-chloro-4-(cyclobutylamino)-1H-pyrazolo[3,4-d]pyrimidin-1-yl)-3,4-dihydroxytetrahydrofuran-2-yl)methoxy)methyl)phosphonic acid]"
23,≤ 500,"O=P(O)(O)COC[C@H]1O[C@@H](n2ncc3c(N4CCOCC4)nc(Cl)nc32)[C@H](O)[C@@H]1O [Example 42, ((((2R,3S,4R,5R)-5-(6-chloro-4-morpholino-1H-pyrazolo[3,4-d]pyrimidin-1-yl)-3,4-dihydroxytetrahydrofuran-2-yl)methoxy)methyl)phosphonic acid]"
